Measurements reported in patent publication US4528287A, “6-Fluoro-1, 4-dihydro-4-oxo-7-substituted piperazinylquinoline-3-carboxylic acids and the method for preparing the same” (priority 1983, dated 1985).
Converted amounts (≈) assume the structure as drawn. Like-named read-outs stand apart in the source and are kept apart here.

Experiments:
[1] = Urinary excretion in rats after oral dosing (bioassay with Escherichia coli NIHJ-JC-2); type: in vivo, SD strain); settings: rat, male SD rats, 20 mg/Kg per os, fasted 24 hr; for concentration at 6 h: urine 0-6 hr, read-out: Drug Concentration in Urine 0-6 (hr); for dose excreted at 24 h: urine 0-24 hr, read-out: Rate of Urinary Excretion 0-24 (hr); for concentration at 24 h: urine 6-24 hr, read-out: Drug Concentration in Urine 6-24 (hr)
Description: Male rats of SD strain, weighing 180-210 g, were used 8 animals at a group. Test compounds suspended in 0.5% carboxymethyl cellulose were administered per os to 24 hr-fasted rats at dose of 20 mg/Kg. Urine was pooled from 0 to 6 hrs. and 6 to 24 hrs, and urinary excretion was measured by bioassay using Escherichia coli NIHJ-JC-2.
The assay method employed was the cup-plate method using
Escherichia coli NIHJ-JC-2. Urine was appropriately diluted with 1/15M phosphate buffer pH7.0, before assay if necessary. Standard calibration lines were made in 1/15M phosphate buffer pH7.0.

[2] = system: Salmonella enteritidis G14; test: MIC, twofold agar dilution; type: cell-based; settings: Salmonella enterica, Gram -, 10^6 cells/ml, 18 hrs, 37° C., read-out: Minimum inhibitory concentration (MIC)
Description: (§1) Minimum inhibitory concentrations (MIC) were determined by the twofold agar dilution method (Chemotherapy, 29(1), 76(1981)). Overnight cultures in Mueller-Hinton broth were suspended by buffered saline gelatine. One loopful of the bacterial suspension (10^6 or 10^8 colony-forming units/ml) was incubated onto the test compound-containing plates. The plates were incubated for 18 hrs. at 37° C. The MIC was the lowest concentration of the drug that inhibited visible growth.

Salmonella typhi 901 = test: MIC, twofold agar dilution; type: cell-based; settings: Salmonella enterica, 18 h, read-out: Minimum inhibitory concentration (MIC)
Description: as §1

[3] = system: Bacillus subtilis ATCC6633; test: MIC, twofold agar dilution; type: cell-based; settings: Gram +, 10^6 cells/ml, 18 hrs, 37° C., read-out: Minimum inhibitory concentration (MIC)
Description: as §1

Proteus vulgalis HX-19 = test: MIC, twofold agar dilution; type: cell-based; settings: Gram -; 10^6 cells/ml; 18 hrs, 37° C.; read-out: Minimum inhibitory concentration (MIC)
Description: as §1

[4] = system: Pseudomonas aeruginosa IFO3445; test: MIC, twofold agar dilution; type: cell-based; settings: Gram -, 10^6 cells/ml, 18 hrs, 37° C., read-out: Minimum inhibitory concentration (MIC)
Description: as §1

[5] = system: Escherichia coli K-12 C600; test: MIC, twofold agar dilution; type: cell-based; settings: K12C600, Gram -, 10^6 cells/ml, 18 hrs, 37° C., read-out: Minimum inhibitory concentration (MIC)
Description: as §1

[6] = system: Enterobacter aerogenes ATCC13048; test: MIC, twofold agar dilution; type: cell-based; settings: Klebsiella aerogenes, Gram -, 10^6 cells/ml, 18 hrs, 37° C., read-out: Minimum inhibitory concentration (MIC)
Description: as §1

[7] = system: Enterobacter cloaceas 963; test: MIC, twofold agar dilution; type: cell-based; settings: Gram -, 10^6 cells/ml, 18 hrs, 37° C., read-out: Minimum inhibitory concentration (MIC)
Description: as §1

[8] = system: Proteus mirabilis IFO3849; test: MIC, twofold agar dilution; type: cell-based; settings: Gram -, 10^6 cells/ml, 18 hrs, 37° C., read-out: Minimum inhibitory concentration (MIC)
Description: as §1

[9] = system: Pseudomonas aeruginosa PAO7; test: MIC, twofold agar dilution; type: cell-based; settings: Gram -, 10^6 cells/ml, 18 hrs, 37° C., read-out: Minimum inhibitory concentration (MIC)
Description: as §1

[10] = system: Salmonella schottmulleri 0006; test: MIC, twofold agar dilution; type: cell-based; settings: Gram -, 10^6 cells/ml, 18 hrs, 37° C., read-out: Minimum inhibitory concentration (MIC)
Description: as §1

Proteus vulgalis OX-19 = test: MIC, twofold agar dilution; type: cell-based; settings: Gram -; 10^6 cells/ml; 18 hrs, 37° C.; read-out: Minimum inhibitory concentration (MIC)
Description: as §1

[11] = system: Escherichia coli NIHJ-JC-2; test: MIC, twofold agar dilution; type: cell-based; settings: NIHJJC2, Gram -, 10^6 cells/ml, 18 hrs, 37° C., read-out: Minimum inhibitory concentration (MIC)
Description: as §1

Proteus morganii IFO3848 = test: MIC, twofold agar dilution; type: cell-based; settings: Morganella morganii, Gram -, 10^6 cells/ml, 18 hrs, 37° C., read-out: Minimum inhibitory concentration (MIC)
Description: as §1

[12] = system: Klebsiella pneumoniae PCI-602; test: MIC, twofold agar dilution; type: cell-based; settings: read-out: Minimum inhibitory concentration (MIC)
Description: as §1

[13] = system: Staphylococcus aureus FAD208PJC-1; test: MIC, twofold agar dilution; type: cell-based; settings: FAD208PJC1, Gram +, 10^6 cells/ml, 18 hrs, 37° C., read-out: Minimum inhibitory concentration (MIC)
Description: as §1

[14] = system: Streptococcus pyogenes Cook; test: MIC, twofold agar dilution; type: cell-based; settings: Gram +, 10^6 cells/ml, 18 hrs, 37° C., read-out: Minimum inhibitory concentration (MIC)
Description: as §1

Proteus rettgeri IFO3850 = test: MIC, twofold agar dilution; type: cell-based; settings: Providencia rettgeri, Gram -, 10^6 cells/ml, 18 hrs, 37° C., read-out: Minimum inhibitory concentration (MIC)
Description: as §1

[15] = system: Serratia marcescens IAM1184; test: MIC, twofold agar dilution; type: cell-based; settings: Gram -, 10^6 cells/ml, 18 hrs, 37° C., read-out: Minimum inhibitory concentration (MIC)
Description: as §1

[16] = system: Pseudomonas aeruginosa NCTC10490; test: MIC, twofold agar dilution; type: cell-based; settings: Gram -, 10^6 cells/ml, 18 hrs, 37° C., read-out: Minimum inhibitory concentration (MIC)
Description: as §1

[17] = system: Micrococcus luteus ATCC9341; test: MIC, twofold agar dilution; type: cell-based; settings: Gram +, 10^6 cells/ml, 18 hrs, 37° C., read-out: Minimum inhibitory concentration (MIC)
Description: as §1

[18] = system: Pseudomonas aeruginosa ATCC9027; test: MIC, twofold agar dilution; type: cell-based; settings: Gram -, 10^6 cells/ml, 18 hrs, 37° C., read-out: Minimum inhibitory concentration (MIC)
Description: as §1

[19] = system: Salmonella paratyphi 1015; test: MIC, twofold agar dilution; type: cell-based; settings: Salmonella enterica, 18 h, read-out: Minimum inhibitory concentration (MIC)
Description: as §1

[20] = system: Staphylococcus aureus MS-353; test: MIC, twofold agar dilution; type: cell-based; settings: MS353, Gram +, 10^6 cells/ml, 18 hrs, 37° C., read-out: Minimum inhibitory concentration (MIC)
Description: as §1

[21] = system: Staphylococcus aureus Terajima; test: MIC, twofold agar dilution; type: cell-based; settings: Gram +, 10^6 cells/ml, 18 hrs, 37° C., read-out: Minimum inhibitory concentration (MIC)
Description: as §1

[22] = system: Salmonella typhimurium IID 971; test: MIC, twofold agar dilution; type: cell-based; settings: Salmonella enterica; Gram -; 10^6 cells/ml; 18 hrs, 37° C.; read-out: Minimum inhibitory concentration (MIC)
Description: as §1

in vivo = settings: mouse, male ddY mice, 10 days
Description: Male mice of ddY strain, 4 weeks old, were used with 10 animals at a group. Test compounds suspended in 0.5% carboxymethyl cellulose were administered per os (p.o.) in mice. In the case of intraveneous (i.v.) administration, test compounds were solved in 0.1N-HCl solution and neutralized with 0.1N-NaOH solution.

[23] = PCI602, Gram -, 10^6 cells/ml, 18 hrs, 37° C.

| SMILES | MIC [2] [µg/mL] | MIC (Salmonella typhi 901) [µg/mL] | MIC [3] [µg/mL] | MIC (Proteus vulgalis HX-19) [µg/mL] | MIC [4] [µg/mL] | MIC [5] [µg/mL] | MIC [6] [µg/mL] | MIC [7] [µg/mL] | MIC [8] [µg/mL] | MIC [9] [µg/mL] | MIC [10] [µg/mL] | MIC (Proteus vulgalis OX-19) [µg/mL] | MIC [11] [µg/mL] | MIC (Proteus morganii IFO3848) [µg/mL] | MIC [13] [µg/mL] | MIC [14] [µg/mL] | MIC (Proteus rettgeri IFO3850) [µg/mL] | MIC [15] [µg/mL] | MIC [16] [µg/mL] | MIC [17] [µg/mL] | other results |
| --- | --- | --- | --- | --- | --- | --- | --- | --- | --- | --- | --- | --- | --- | --- | --- | --- | --- | --- | --- | --- | --- |
| CC1CN(c2c(F)cc3c(=O)c(C(=O)O)cn(CCF)c3c2F)CCN1 (centres unmarked) [Example 16, 6,8-Difluoro-1-(2-fluoroethyl)-1,4-dihydro-7-(3-methyl-1-piperazinyl)-4-oxoquinoline-3-carboxylic acid] | 0.2 (≈ 0.542 µM) | 0.1 (≈ 0.271 µM) | 0.2 (≈ 0.542 µM) | 0.05 (≈ 0.135 µM) | 0.78 (≈ 2.11 µM) | 0.2 (≈ 0.542 µM) | 0.2 (≈ 0.542 µM) | 0.2 (≈ 0.542 µM) | 0.39 (≈ 1.06 µM) | 1.56 (≈ 4.22 µM) | 0.1 (≈ 0.271 µM) | 0.2 (≈ 0.542 µM) | 0.1 (≈ 0.271 µM) | 0.05 (≈ 0.135 µM) | 0.38 (≈ 1.03 µM) | 3.13 (≈ 8.47 µM) | 0.2 (≈ 0.542 µM) | 0.2 (≈ 0.542 µM) | 0.38 (≈ 1.03 µM) | 6.25 (≈ 16.9 µM) | concentration at 6 h [1]: 344 µg/mL; dose excreted at 24 h [1]: 41%; concentration at 24 h [1]: 46 µg/mL; MIC [12, 23]: 0.023 µg/mL (≈ 0.0623 µM); MIC [18]: 0.1 µg/mL (≈ 0.271 µM); MIC [19]: 0.05 µg/mL (≈ 0.135 µM); MIC [20]: 1.56 µg/mL (≈ 4.22 µM); MIC [21]: 0.78 µg/mL (≈ 2.11 µM); MIC [22]: 0.2 µg/mL (≈ 0.542 µM) |
| CCn1cc(C(=O)O)c(=O)c2cc(F)c(N3CCNC(C)C3)c(F)c21 (centres unmarked) [Example 4, 1-Ethyl-6,8-difluoro-1,4-dihydro-7-(3-methyl-1-piperazinyl)-4-oxoquinoline-3-carboxylic acid] | 0.05 (≈ 0.142 µM) | 0.0125 (≈ 0.0356 µM) | 0.1 (≈ 0.285 µM) | 0.025 (≈ 0.0712 µM) | 0.78 (≈ 2.22 µM) | 0.05 (≈ 0.142 µM) | 0.1 (≈ 0.285 µM) | 0.1 (≈ 0.285 µM) | 0.2 (≈ 0.569 µM) | 1.56 (≈ 4.44 µM) | 0.025 (≈ 0.0712 µM) | 0.05 (≈ 0.142 µM) | 0.05 (≈ 0.142 µM) | 0.025 (≈ 0.0712 µM) | 0.38 (≈ 1.08 µM) | 3.13 (≈ 8.91 µM) | 0.05 (≈ 0.142 µM) | 0.1 (≈ 0.285 µM) | 0.78 (≈ 2.22 µM) | 6.25 (≈ 17.8 µM) | concentration at 6 h [1]: 659 µg/mL; dose excreted at 24 h [1]: 75%; concentration at 24 h [1]: 87 µg/mL; LD50 at 240 h (in vivo; iv, i.v., read-out: LD50 i.v. (95% Confidence Limit)): 246 mg/kg; LD50 at 240 h (in vivo; po, p.o., read-out: LD50 p.o.): > 4000 mg/kg; MIC ([12]; PCI602, 18 h): 0.0125 µg/mL (≈ 0.0356 µM); MIC [18]: 0.05 µg/mL (≈ 0.142 µM); MIC [19]: 0.025 µg/mL (≈ 0.0712 µM); MIC [20]: 0.78 µg/mL (≈ 2.22 µM); MIC [21]: 0.78 µg/mL (≈ 2.22 µM); MIC [22]: 0.05 µg/mL (≈ 0.142 µM) |
| CCn1cc(C(=O)O)c(=O)c2cc(F)c(N3CC(C)NC(C)C3)c(F)c21 (centres unmarked) [Example 20] | 0.39 (≈ 1.07 µM) | 0.1 (≈ 0.274 µM) | 0.2 (≈ 0.547 µM) | 0.2 (≈ 0.547 µM) | 3.13 (≈ 8.57 µM) | 0.2 (≈ 0.547 µM) | 0.2 (≈ 0.547 µM) | 0.2 (≈ 0.547 µM) | 1.56 (≈ 4.27 µM) | 3.13 (≈ 8.57 µM) | 0.1 (≈ 0.274 µM) | 0.1 (≈ 0.274 µM) | 0.39 (≈ 1.07 µM) | 0.2 (≈ 0.547 µM) | 0.78 (≈ 2.13 µM) | 6.25 (≈ 17.1 µM) | 0.39 (≈ 1.07 µM) | 0.78 (≈ 2.13 µM) | 0.78 (≈ 2.13 µM) | 12.5 (≈ 34.2 µM) | MIC [12, 23]: 0.2 µg/mL (≈ 0.547 µM); MIC [18]: 0.2 µg/mL (≈ 0.547 µM); MIC [19]: 0.1 µg/mL (≈ 0.274 µM); MIC [20]: 1.56 µg/mL (≈ 4.27 µM); MIC [21]: 1.56 µg/mL (≈ 4.27 µM); MIC [22]: 0.2 µg/mL (≈ 0.547 µM) |
